Measured values published in ChEMBL document CHEMBL4831557, “Parthenolide Derivatives as PKM2 Activators Showing Potential in Colorectal Cancer” (J Med Chem, 2021).
Activity calls are given as the source filed them. The rule behind the calls is not given here.

Tests used:
HCT-116 = experiment: Cytotoxicity against human HCT-116 cells assessed as reduction in cell viability incubated for 48 hrs by MTT assay; format: functional, cell-based; conditions: HCT-116, 48 h
U2OS = experiment: Cytotoxicity against human U2OS cells assessed as reduction in cell viability incubated for 48 hrs by MTT assay; format: functional, cell-based
MDA-MB-231 = experiment: Cytotoxicity against human MDA-MB-231 cells assessed as reduction in cell viability incubated for 48 hrs by MTT assay; format: functional, cell-based; conditions: MDA-MB-231, 48 h
HT-29 = experiment: Cytotoxicity against human HT-29 cells assessed as reduction in cell viability incubated for 48 hrs by MTT assay; format: functional, cell-based; conditions: HT-29, 48 h
HepG2 = experiment: Cytotoxicity against human HepG2 cells assessed as reduction in cell viability incubated for 48 hrs by MTT assay; format: functional, cell-based; conditions: HepG2, 48 h
A549 = experiment: cells; conditions: Homo sapiens, A549, 48 h
SW480 = experiment: Cytotoxicity against human SW480 cells assessed as reduction in cell viability incubated for 48 hrs by MTT assay; format: functional, cell-based; conditions: SW480, 48 h
Pyruvate kinase PKM = Pyruvate kinase PKM (Homo sapiens, UniProt P14618); experiment: Activation of recombinant human PKM2 at 10 uM incubated 30 mins by fluorescence microplate reader analysis; conditions: filed as activator
[1] = Selectivity index, ratio of IC50 for human NCM460 cells to IC50 for human SW480 cells
NCM460 = experiment: Cytotoxicity against human NCM460 cells assessed as reduction in cell viability incubated for 48 hrs by MTT assay; format: cell-based; conditions: NCM460, 48 h
[2] = Selectivity index, ratio of IC50 for human NCM460 cells to IC50 for human HT-29 cells; format: toxicity; conditions: NCM460 cells versus HT-29 cells, read-out: Ratio IC50

Sequence of Pyruvate kinase PKM (P14618 2-531 limits assumed): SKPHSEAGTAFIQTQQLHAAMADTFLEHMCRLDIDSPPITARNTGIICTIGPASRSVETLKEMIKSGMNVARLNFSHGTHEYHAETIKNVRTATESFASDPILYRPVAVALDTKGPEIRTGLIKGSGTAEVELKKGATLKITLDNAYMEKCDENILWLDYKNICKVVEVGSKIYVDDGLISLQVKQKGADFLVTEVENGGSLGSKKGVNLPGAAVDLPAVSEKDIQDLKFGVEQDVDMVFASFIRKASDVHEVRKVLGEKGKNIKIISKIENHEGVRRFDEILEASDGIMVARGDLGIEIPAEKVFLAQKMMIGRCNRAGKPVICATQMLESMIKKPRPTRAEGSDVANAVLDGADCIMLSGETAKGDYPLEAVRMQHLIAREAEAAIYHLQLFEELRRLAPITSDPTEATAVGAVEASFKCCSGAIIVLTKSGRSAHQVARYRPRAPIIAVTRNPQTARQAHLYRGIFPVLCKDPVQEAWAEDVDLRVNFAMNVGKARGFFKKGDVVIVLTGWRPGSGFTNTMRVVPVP

SMILES | IC50 (A549) [µM] | Activity (Pyruvate kinase PKM) | IC50 (HCT-116) [µM] | IC50 (U2OS) [µM] | IC50 (MDA-MB-231) [µM] | IC50 (HT-29) [µM] | IC50 (HepG2) [µM] | IC50 (SW480) [µM] | Ratio IC50 [1] | IC50 (NCM460) [µM] | selectivity ratio [2]
C=C1C(=O)O[C@@H]2C3O[C@]3(C)CC/C=C(\C)CC[C@@H]12 (stereo not given in full) | 10.3 |  | 8.12 | 7 | 8.68 | 7.41 | 26.1 | 3.56 | 0.78 | 2.78 | 0.38
C=C1C(=O)O[C@H]2[C@H]1CC/C(COC(=O)c1ccc3nc(C)ccc3c1)=C/CC[C@@]1(C)O[C@@H]21 | 1.34 |  | 2.78 | 1.68 | 1.29 | 1.61 | 7.79 | 0.79 |  |  | 
C=C1C(=O)O[C@H]2[C@H]1CC/C(COC(=O)c1ccc3nc(O)ccc3c1)=C/CC[C@@]1(C)O[C@@H]21 | 5.12 |  | 2.25 | 7.62 | 5.1 | 1.72 | 10.6 | 0.73 |  |  | 
C=C1C(=O)O[C@H]2[C@H]1CC/C(COC(=O)Cc1ccc3ncccc3c1)=C/CC[C@@]1(C)O[C@@H]21 | 2.76 |  | 1.79 | 6.62 | 4.13 | 1.4 | 5.9 | 1.8 |  |  | 
C=C1C(=O)O[C@H]2[C@H]1CC/C(COC(=O)c1n[nH]c(=O)c3ccccc13)=C/CC[C@@]1(C)O[C@@H]21 | 4.52 |  | 6.86 | 7.81 | 6.26 | 6.26 | 9.63 | 2.43 |  |  | 
C=C1C(=O)O[C@H]2[C@H]1CC/C(COC(=O)Cc1n[nH]c(=O)c3ccccc13)=C/CC[C@@]1(C)O[C@@H]21 | 5.79 |  | 2.87 | 8.53 | 5.49 | 2.56 | 8.44 | 2.28 |  |  | 

Second part, led by results:

IC50 (A549) [µM] | Activity (Pyruvate kinase PKM) | SMILES | IC50 (HCT-116) [µM] | IC50 (U2OS) [µM] | IC50 (MDA-MB-231) [µM] | IC50 (HT-29) [µM] | IC50 (HepG2) [µM] | IC50 (SW480) [µM] | Ratio IC50 [1] | IC50 (NCM460) [µM] | selectivity ratio [2]
3.18 | Active | C=C1C(=O)O[C@H]2[C@H]1CC/C(COC(=O)c1ccc3ncccc3c1)=C/CC[C@@]1(C)O[C@@H]21 | 1.6 | 3.11 | 1.99 | 1.33 | 6.6 | 0.29 |  |  | 
14.2 |  | C=C1C(=O)O[C@H]2[C@H]1CC/C(C(=O)CN1CCN(C(=O)c3ccc4ccccc4n3)CC1C)=C/CC[C@@]1(C)O[C@@H]21 (stereo not given in full) | 6.89 | 21.7 | 8.67 | 6.34 | 14 | 8.64 |  |  | 
40.2 |  | C/C1=C\CC[C@@]2(C)O[C@H]2[C@H]2OC(=O)/C(=C\c3ccc4ncncc4c3)[C@@H]2CC1 | 87.7 | 72 | > 100 | > 100 | > 100 | 51.6 |  |  | 
2.74 |  | C=C1C(=O)O[C@H]2[C@H]1CC/C(C(=O)Oc1ccc3nccc(Cl)c3c1)=C/CC[C@@]1(C)O[C@@H]21 | 1.29 | 2.21 | 2.25 | 1.22 | 4.03 | 0.59 |  |  | 
14.8 |  | C=C1C(=O)O[C@H]2[C@H]1CC/C(C(=O)CN1CCN(C(=O)c3ccc4ccccc4n3)CC1)=C/CC[C@@]1(C)O[C@@H]21 | 5.27 | 13 | 8.37 | 4.83 | 7.75 | 3.3 |  |  | 
7.49 |  | C=C1C(=O)O[C@H]2[C@H]1CC/C(CO)=C\CC[C@@]1(C)O[C@@H]21 | 7.5 | 10.7 | 6.01 | 6.95 | 12 | 5.87 |  |  | 
2.65 |  | C=C1C(=O)O[C@H]2[C@H]1CC/C(COC(=O)c1cccc3cccnc13)=C/CC[C@@]1(C)O[C@@H]21 | 4.12 | 3.54 | 2.2 | 2.65 | 8.76 | 0.49 |  |  | 
